One block for each compound: values may come before it.
Experiments:
[1] = Penetration of latanoprost solution in hair roots of pig's eyelashes (eyelid incubation, HPLC); format: in vitro ADME
Protocol: Test formulation: 0.5 mg/ml latanoprost (Yonsung, Purity 100,2%) in 1-perfluorobutylpentane (Novaliq) and 1% v/v ethanol (Merck, Secco solve dried).
Biological material: fresh pig's eyes with eyelids, not in buffer solution during transport from the slaughterhouse to the laboratory.
The upper eyelids were separated from the eye with scissors, forceps and scalpel. Each eyelid was placed in a glass vessel and incubation with the test formulation was started by addition of 1 ml of formulation. Since the eyelashes had different lengths, before incubation the eyelashes were shortened to standardise the incubation procedure. After incubation according to the plan in Table 3, the eyelids were washed with 1-perfluorobutylpentane eight times and eyelashes were plucked and weighted, as shown in Table 3.
After plucking of the eyelashes, the eyelids were punched with a 4 mm (0,126 cm^2) biopsy tool 5 times (total area 0,628 cm^2). The skin and the conjunctiva were then separated.
Extraction via addition of […] ACN (acetonitrile) to each sample at room temperature on orbital shaker (150 rpm) and minirotator (Biosan maximum level) for 2 hours. Then the samples were centrifuged for 5 minutes at 13000 rpm. The supernatant collected from the samples was stored at −20° C. till analysis.
The amount of latanoprost and of the bio transformed latanoprost acid in the tissues and eyelashes were determined via HPLC. For the calculation, the mean assay values for latanoprost acid were corrected with a factor of 1,1 as the molecular weight of latanoprost acid is lower than the weight of latanoprost.

[2] = Penetration of latanoprost into minipig skin punches with and without hair (Franz Diffusion Cells, HPLC); format: in vitro ADME, Gottingen minipig; conditions: 2 hours incubation
Protocol: Biological material: abdominal and dorsal full skin, R1 and part of L1 region, of 5 months old Gottingen minipig skin.
For the incubation experiments, Franz Diffusion Cells (FDC) having an inner diameter of 15 mm and an acceptor volume of 12 ml were used. Donor and acceptor chambers were made of glass.
Twelve frozen full thickness skin disks were punched with a diameter of 30 mm. After complete defrosting and equilibration to room temperature, the punches were clamped into Franz diffusion cells (FDC). Each skin disc was dried with wipes, clamped in between the corresponding FDCs having an inner diameter of 15 mm (1.767 cm^2 skin diffusion area) and an acceptor volume of approximately 12 ml. The receiver compartment of the cells was filled with PBS (phosphate buffered saline). Incubation was started by addition of 800 […]1 of test formulation 1-3. […]
Out of each skin disc, 20 skin discs having a diameter of 2 mm were obtained by punching with a disposable biopsy punch, which was put on top of the skin and pressed through the full thickness of the skin. […] The ten punches with hair and without hair obtained by each disc were placed respectively in pre-weighed tubes and the weight was determined. […]
Via HPLC analysis, the amount of latanoprost penetrated in the skin disks after incubation with the test formulations and the amount of latanoprost acid were evaluated and are illustrated in the FIGS. 1-3.

[3] = Penetration of cortexolone 17α-propionate, Franz Diffusion Cells; format: in vitro ADME; conditions: 1% (w/w) CB-03-01 in F4H5
Protocol: Cortexolone 17α-propionate (developmental code name CB-03-01; 21-Hydroxy-3,20-dioxopregn-4-en-17-yl propionate; CAS Registry Number: 19608-29-8) was dissolved in 1-perfluorbutylpentane (F4H5) to result in a solution of 1% (w/w) CB-03-01 in F4H5.

amount of latanoprost in eyelashes ([1]; FIG. 4, 2, 15, 25 hrs): preferred affinity to the eyelashes
Compound: CC(C)OC(=O)CCC/C=C\C[C@@H]1[C@@H](CC[C@@H](O)CCc2ccccc2)[C@H](O)C[C@@H]1O [latanoprost]
latanoprost acid in eyelashes ([1]; 25 hours incubation, FIG. 5): a small amount of latanoprost acid was detected | amount of latanoprost in skin parts ([1]; FIG. 4, compared with eyelashes): Comparable lower amount of latanoprost were detected in the skin parts | uptake of latanoprost, skin punches with hair vs without hair ([2]; FIG. 1, microgram per cm^2): higher for skin punches with hair than for skin punches without hair | content of latanoprost acid, punches with hair vs without hair ([2]; FIG. 2): higher content of latanoprost acid than punches without hair

Compound: CCC(=O)O[C@]1(C(=O)CO)CC[C@H]2[C@@H]3CCC4=CC(=O)CC[C@]4(C)[C@H]3CC[C@@]21C [cortexolone 17α-propionate, 21-Hydroxy-3,20-dioxopregn-4-en-17-yl propionate]
amount found in the dermis [3]: especially high amounts of cortexolone 17α-propionate were found in the dermis | delivery to layers of the skin ([3]; stratum corneum, epidermis and dermis): effectively and rapidly delivered to layers of the skin
